We go through 1 molecule from publication PMC9598407, “Identification of Staphylococcus aureus Penicillin Binding Protein 4 (PBP4) Inhibitors” (Antibiotics, 2022).

One experiment deals with S. aureus strain USA300. In words: microbe, parasite or virus in culture. The class given is cell-based. To be noted: Staphylococcus aureus, USA300, read-out: Ceftobiprole resistance (MIC) in the presence of compound. As for the experimental part:
Fractional inhibitory testing was performed in checkerboard format to determine whether putative PBP4 inhibitors potentiated the antimicrobial effects of β-lactams toward S. aureus strains USA300 and CRB, as previously described. To do so, in triplicate 10^5 CFU of each strain (10 µL) was added to individual wells of a microtiter plate containing 90 µL MH media. […] Plates were incubated at 37 °C for 16–20 h and the lowest concentration of each test agent that inhibited bacterial growth alone or in combination was determined by the naked eye. The fractional inhibitory concentration (FIC) index was calculated using the formula: FIC of A (MIC of drug A in combination/MIC of drug A alone) + FIC B ([…]/MIC of drug B alone). A synergistic interaction was defined as a FICI value of less than 0.5, an additive interaction was defined as a FICI value between 0.5 and 1.0, an indifferent interaction was defined as a FICI value between 1.0 and 4.0, and an antagonistic interaction was defined as a FICI value of more than 4.0 [46].

In experiment [1] the target is recombinant Bacillus subtilis PBP4 (Bacillus subtilis, UniProt P40750). In words: BOCILLIN FL fluorescence polarization displacement assay, PBP4. It counts as binding. The protocol: To more directly evaluate whether 9314848 is likely to affect PBP4 function, the compound’s ability to bind recombinant PBP4 was measured using BOCILLIN FL fluorescence polarization displacement assays. The premise for the assay is that the fluorescence polarization of the fluorescently labeled β-lactam, penicillin V (BOCILLIN FL), will increase upon binding to its cognate target (i.e., PBP4). Further, compounds that bind PBP4 and inhibit its function would impede BOCILLIN FL binding thereby allowing us to assess the protein binding affinity of 9314848 using a simple fluorescence reduction assay.
Chain of recombinant Bacillus subtilis PBP4 (P40750 22-624): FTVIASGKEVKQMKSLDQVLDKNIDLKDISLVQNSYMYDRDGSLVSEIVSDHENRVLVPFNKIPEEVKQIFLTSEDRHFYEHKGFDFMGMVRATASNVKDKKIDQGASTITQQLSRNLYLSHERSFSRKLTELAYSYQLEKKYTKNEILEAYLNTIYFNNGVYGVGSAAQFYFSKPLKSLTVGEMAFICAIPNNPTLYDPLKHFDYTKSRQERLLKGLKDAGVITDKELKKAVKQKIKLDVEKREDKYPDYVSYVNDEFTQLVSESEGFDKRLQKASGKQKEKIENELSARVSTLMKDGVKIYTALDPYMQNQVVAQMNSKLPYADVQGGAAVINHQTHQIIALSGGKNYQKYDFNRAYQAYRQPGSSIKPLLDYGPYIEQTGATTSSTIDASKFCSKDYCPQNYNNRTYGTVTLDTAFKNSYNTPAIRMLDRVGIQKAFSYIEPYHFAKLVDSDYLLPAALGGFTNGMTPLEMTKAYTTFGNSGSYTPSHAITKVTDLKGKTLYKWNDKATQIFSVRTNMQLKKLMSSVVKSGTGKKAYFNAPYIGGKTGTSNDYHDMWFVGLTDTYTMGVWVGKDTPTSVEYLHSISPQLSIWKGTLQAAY
To determine whether the assay is amenable to measuring the binding properties of a compound that is known to bind PBP4 vs. a compound that is not expected to bind the protein we performed fluorescence polarization assays in which PBP4 was preincubated with either the β-lactam ampicillin, or the aminoglycoside kanamycin.
(§1) A dose response study was conducted (Figure 4B) in which PBP4 was preincubated with 0, 3.125, 6.25, 12.5, 25, or 50 µM of ampicillin, kanamycin, or 9314848.
First, fluorescence polarization assays were performed as previously described, but with minor modifications. Briefly, the indicated amount of the putative PBP4 inhibitor or control antibiotic was incubated with 1 µM recombinant B. subtilis PBP4 or S. aureus PBP2a in potassium phosphate buffer (40 mM K2HPO4 and 10 mM KH2PO4) for 1 h in black 96-well microtiter plates (Corning Life Sciences, Corning, NY, USA). Following incubation, 1 µM (final concentration) BOCILLIN FL penicillin was added, and the mixture was incubated for 30 min. BOCILLIN FL fluorescence polarization was measured at (495 nm excitation and 545 nm emission) in a SpectraMax M5 multimode plate reader (Molecular Devices, San Jose, CA, USA). […] The resulting data were plotted as percentage BOCILLIN FL binding inhibition = (T/U) × 100; T = FL polarization of ((PBP4+ BOCILLIN FL) − (PBP4+ BOCILLIN FL + inhibitor compound)), U = FL polarization of ((PBP4 + BOCILLIN FL) − (BOCILLIN FL)). Second, gel electrophoresis and fluorescence detection was used to measure BOCILLIN FL labeling of PBP4 treated with the known PBP4 inhibitor cefoxitin (positive control), kanamycin (negative control) or 9314848 (test compound), as previously described but with minor modifications. Briefly, 1 µM of recombinant PBP4 was mixed with 0, 50, 500, 2000, or 5000 µM 9314848 or control antibiotic in 50 mM phosphate buffer (pH 7.4) and incubated at 37 °C for 30 min. Next 40 μM of BOCILLIN FL was added to the reaction mixture and incubated for an additional 30 min at 37 °C. Reactions were stopped by adding 5× SDS-PAGE gel loading dye, heated at 100 °C for 3 min and separated by electrophoresis in 12% SDS-PAGE (2 h, 120 Volts). BOCILLIN FL labeled PBP4 was imaged at λ = 365 nm using a BioRad Gel Doc EZ Imaging system and the gel was then subsequently stained with Bio-safe Coomassie Brilliant Blue stain (BioRad, Hercules, CA, USA) to measure the amount of protein present in each reaction condition and analyzed using NIH-ImageJ software. The percent BOCILLIN FL binding was calculated by first normalizing the protein present in each reaction condition to that of untreated control and subsequently applying each reaction’s protein normalization factor to each reaction’s fluorescent signal. The percentage BOCILLIN FL binding inhibition was then calculated as the normalized band intensity of antibiotic/compound treated sample as compared to the control sample (PBP4 + BOCILLIN FL in the absence of compound).
In general terms: Fluorescence polarisation rises when a labelled molecule tumbles more slowly, as on binding a larger partner.

The target of the next experiment is S. aureus PBP2a (Staphylococcus aureus, UniProt P07944). Briefly: BOCILLIN FL fluorescence polarization assay, PBP2A. The conditions noted are these: 50 µM compound; read-out: Inhibition of BOCILLIN FL labeling of PBP2A. It counts as binding. The protocol:
as §1
First, fluorescence polarization assays were performed as previously described, but with minor modifications. Briefly, the indicated amount of the putative PBP4 inhibitor or control antibiotic was incubated with 1 µM recombinant B. subtilis PBP4 or S. aureus PBP2a in potassium phosphate buffer (40 mM K2HPO4 and 10 mM KH2PO4) for 1 h in black 96-well microtiter plates (Corning Life Sciences, Corning, NY, USA). Following incubation, 1 µM (final concentration) BOCILLIN FL penicillin was added, and the mixture was incubated for 30 min. BOCILLIN FL fluorescence polarization was measured at (495 nm excitation and 545 nm emission) in a SpectraMax M5 multimode plate reader (Molecular Devices, San Jose, CA, USA). […] Second, gel electrophoresis and fluorescence detection was used to measure BOCILLIN FL labeling of PBP4 treated with the known PBP4 inhibitor cefoxitin (positive control), kanamycin (negative control) or 9314848 (test compound), as previously described but with minor modifications. […] The percentage BOCILLIN FL binding inhibition was then calculated as the normalized band intensity of antibiotic/compound treated sample as compared to the control sample (PBP4 + BOCILLIN FL in the absence of compound).

The next experiment concerns Enterococcus faecalis. In words: Ceftobiprole susceptibility with compound, Enterococcus faecalis. The class given is cell-based. The conditions noted are these: not shown. As for the experimental part:
As a means to further evaluate whether the compound affects PBP4 activity a series of assays were performed.

Chain of S. aureus PBP2a (P07944 whole entry): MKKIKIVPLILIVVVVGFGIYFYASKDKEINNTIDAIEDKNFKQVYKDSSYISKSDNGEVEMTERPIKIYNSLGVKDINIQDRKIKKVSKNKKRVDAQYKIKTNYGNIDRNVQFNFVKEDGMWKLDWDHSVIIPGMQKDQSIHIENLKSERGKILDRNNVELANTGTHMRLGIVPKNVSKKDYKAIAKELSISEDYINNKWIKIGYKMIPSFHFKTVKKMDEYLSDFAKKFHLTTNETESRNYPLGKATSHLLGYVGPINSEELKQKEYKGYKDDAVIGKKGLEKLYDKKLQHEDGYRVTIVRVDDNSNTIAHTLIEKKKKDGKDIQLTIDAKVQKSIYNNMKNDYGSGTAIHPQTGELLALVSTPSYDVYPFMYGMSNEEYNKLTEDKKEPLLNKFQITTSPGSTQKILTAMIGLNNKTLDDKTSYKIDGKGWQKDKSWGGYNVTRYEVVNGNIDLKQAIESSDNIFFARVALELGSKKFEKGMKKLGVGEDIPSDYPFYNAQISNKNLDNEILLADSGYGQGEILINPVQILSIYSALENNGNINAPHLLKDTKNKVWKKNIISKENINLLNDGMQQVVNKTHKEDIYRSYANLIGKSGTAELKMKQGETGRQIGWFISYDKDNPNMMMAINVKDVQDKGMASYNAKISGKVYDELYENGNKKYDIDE

As usually defined, the IC50 is the point on the concentration scale where inhibition reaches its midpoint. The term inhibition denotes the change of the read-out against control, counted positive when it falls. As for `CC1CCN(C(=O)c2cccc(NC(=O)Nc3ccc(Cl)cc3)c2)CC1` [Compound 9314848], in the experiment on S. aureus strain USA300, the MIC worked out at 0.25 µg/mL. In addition, in experiment [1] (3.125 µM and 6.25 µM), the “Binding to PBP4 at low concentration” value is recorded as “Minimal binding”. In addition, in experiment [1] (50 µM compound, fluorescence polarization), the “Reduction of BOCILLIN FL binding to PBP4” value is ~ 66%. Further, in experiment [1] (50 µM, 1 µM PBP4), the “Effect of preincubation on BOCILLIN FL binding to PBP4 (fluorescence polarization)” value was “limited fluorescence polarization”. Moreover, in experiment [1] (fluorescence polarization dose response 0-50 µM, read-out: IC50, PBP4 BOCILLIN FL binding inhibition), the IC50 stood at 13.4 µM. Also, the inhibition at 50 µM at S. aureus PBP2a was determined as 25.8 ± 11.4%. Also, the “Effect on ceftobiprole susceptibility” value in the experiment on Enterococcus faecalis is on record as “no effect”.
